Reference: paper PMC10338474 (Nature Communications, 2023)
Values joined by “and” are separate entries in the source; they are usually repeats but may differ in a detail not shown here. Equal values may be shown once. “Also recorded” adds a separate entry of the source. Read-outs that look alike come from different tables or passages of the source.

Tests used:
EPAC1^GEF = EPAC1^GEF (Homo sapiens, UniProt O95398); settings: cited from earlier work
[1] = tested on: isolated CNB domain of EPAC1; settings: NMR; without competing with cAMP; cited from earlier work
EPAC1^α-CNB-GEF [2] = biological target: EPAC1^α-CNB-GEF (Homo sapiens, UniProt O95398); settings: for Dmax (largest protein dimension): EPAC1^α-CNB-GEF with the single ligand (cAMP 1 mM/200 μM or CE3F4 100 μM racemic mix)
Procedure: All small angle X-ray scattering (SAXS) data were obtained from size exclusion chromatography-SAXS (SEC-SAXS) experiments on the SWING beamline (SOLEIL synchrotron, France), using the EPAC1^α-CNB-GEF construct. EPAC1 was used at a concentration of 60 μM to obtain high SAXS intensities. Samples were injected on high-performance liquid chromatography (HPLC) size exclusion column (BioSEC-3 300 Å, Agilent Technologies, Inc.) equilibrated with the elution buffer (20 mM Tris-HCl pH 8.0, 150 mM NaCl, 0.5 mM EDTA). […] Data reduction to absolute units, frame averaging, and subtraction were done using the FOXTROT program suite (SOLEIL synchrotron). Frames corresponding to the high-intensity fractions of the peak and having a constant radius of gyration (Rg) within error were averaged. […] Rg values were evaluated by Guinier Wizard using the data within the range of Guinier approximation sRg < 1.3 and by Distance Distribution Wizard, both of which are modules of the PRIMUS program. The maximum distance Dmax was estimated with PRIMUS and refined by trial and error with GNOM. The distance distribution functions were calculated with GNOM. SAXS profiles were compared with DATCMP (ATSAS suite).

[3] = tested on: Rap1 GTPase in cardiomyocytes; set-up: method as in PMID 23139415; settings: cited from earlier work
arrhythmia in mice = settings: cited from earlier work
arrhythmia in rats = settings: cited from earlier work
EPAC1^α-CNB-GEF [4] = settings: cited from earlier work
EPAC1^FL [5] = biological target: T1, EPAC1^FL (Homo sapiens, UniProt O95398); assay: Liposome flotation binding assay of EPAC1^FL
T1 construct: Human full-length EPAC1 (EPAC1^FL) was cloned into a pET28a vector (6xHis tag in N-terminus); made in house; host or cells: E. coli BL21 (DE3) pG-KJE8
T1 sequence (O95398 1-881 isoform O95398-3): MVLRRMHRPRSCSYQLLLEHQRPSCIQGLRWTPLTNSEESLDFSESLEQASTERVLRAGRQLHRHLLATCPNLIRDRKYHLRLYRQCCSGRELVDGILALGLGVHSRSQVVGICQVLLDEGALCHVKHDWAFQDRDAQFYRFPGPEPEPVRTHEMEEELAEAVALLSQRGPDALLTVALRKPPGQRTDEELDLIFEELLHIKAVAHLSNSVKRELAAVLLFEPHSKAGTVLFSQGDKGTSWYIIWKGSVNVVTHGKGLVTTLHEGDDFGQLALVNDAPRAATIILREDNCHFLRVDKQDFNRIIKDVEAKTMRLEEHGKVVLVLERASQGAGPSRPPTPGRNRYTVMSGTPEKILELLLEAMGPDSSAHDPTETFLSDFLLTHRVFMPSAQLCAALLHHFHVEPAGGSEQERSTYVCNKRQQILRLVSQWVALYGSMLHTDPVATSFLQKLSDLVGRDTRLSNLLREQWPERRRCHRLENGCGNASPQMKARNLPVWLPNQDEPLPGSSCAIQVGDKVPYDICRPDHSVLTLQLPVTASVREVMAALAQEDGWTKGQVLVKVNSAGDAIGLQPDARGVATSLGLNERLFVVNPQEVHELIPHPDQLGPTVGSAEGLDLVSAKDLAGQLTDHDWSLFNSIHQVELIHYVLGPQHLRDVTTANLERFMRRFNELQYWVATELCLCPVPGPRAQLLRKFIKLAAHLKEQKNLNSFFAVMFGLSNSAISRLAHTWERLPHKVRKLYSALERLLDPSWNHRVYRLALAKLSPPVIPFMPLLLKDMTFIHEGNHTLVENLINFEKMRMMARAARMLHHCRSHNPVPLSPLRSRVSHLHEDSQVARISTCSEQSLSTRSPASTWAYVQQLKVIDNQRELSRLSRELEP

[6] = biological target: CNB domain-containing EPAC1 constructs (Homo sapiens, UniProt O95398); settings: Supplementary Fig. 2c
EPAC1 = settings: cited from earlier work
[7] = biological target: Rap1/EPAC1^α-CNB-GEF complex (Homo sapiens, UniProt O95398); settings: cAMP 1 mM, EDTA, DMSO
Procedure: EPAC1^α-CNB-GEF was used at 25 μM in all experiments. […] Proteins samples were injected into a 25 mL Superdex 200 gel filtration column (GE Healthcare) at 0.5 mL/min. Fractions were analyzed by SDS-PAGE.

EPAC1^CNB-GEF = EPAC1^CNB-GEF (Homo sapiens, UniProt O95398); settings: in solution; Supplementary Fig. 4d
Procedure: For kinetics assays, the Rap1 GTPase was loaded with BODIPY-FL-GDP (Jena Bioscience) prior to nucleotide exchange by incubating 50 μM Rap1 with 250 μM BODIPY-GDP and 10 mM EDTA for 30 min at room temperature. Nucleotide exchange was stopped by the addition of 75 mM MgCl2. Removal of excess nucleotides and buffer exchange were done on a PD SpinTrap G-25 (GE HealthCare Life Science). Nucleotide exchange kinetics were monitored by following the decay of BODIPY-GDP fluorescence upon replacement by GTP, using excitation and emission wavelengths of 485 and 530 nm, respectively. Measurements were carried out at 30 °C on a Cary Eclipse fluorimeter (Varian) under stirring in 800 μL cuvettes, or in microplate wells (150 μL) on a FLEXstation (Molecular Devices). […] Liposomes were added at 100 μM (total lipids). For kinetics in solution, kobs values were determined from a mono-exponential fit. […] In this case, kobs values corresponding to the fast component were used.

EPAC1^FL [8] = biological target: T1, EPAC1^FL; assay: Nucleotide exchange kinetics assay (BODIPY-GDP dissociation from Rap1) with full-length EPAC1; type: biochemical; settings: for increase in affinity, PM liposomes vs solution: ratio of apparent KD
Procedure: Liposomes were added at 100 μM (total lipids).
Nonlinear regression based on a straight line model was performed with GraphPad Prism. EPAC1 pseudo first order catalytic efficiencies kcat/KM were deduced from the slopes of the curves, according to the Michaelis–Menten formalism. […] Nonlinear regression based on a sigmoidal model was performed with GraphPad Prism. KD and kmax were deduced from the EC50 and top values of the curves, respectively.

Compound: CC1CCc2c(cc(Br)c(F)c2Br)N1C=O (stereo not shown) [CE3F4]
- inhibition of the GEF domain of EPAC1 alone (EPAC1^GEF): does not inhibit
- binding to the isolated CNB domain [1]: binds
- Rg, Guinier analysis (EPAC1^α-CNB-GEF [2]; +cAMP +CE3F4): 33.41 Å
- Rg, P(r) analysis (EPAC1^α-CNB-GEF [2]; +cAMP +CE3F4): 33.84 Å
- Dmax (largest protein dimension) (EPAC1^α-CNB-GEF [2]): 114 Å
- Rg, Guinier analysis (EPAC1^α-CNB-GEF [2]; single ligand): 32.58 Å
- Rg, P(r) analysis (EPAC1^α-CNB-GEF [2]; single ligand): 32.86 Å
- activation of the Rap1 GTPase in cardiomyocytes [3]: efficiently inhibits
- arrhythmia (arrhythmia in mice): prevents
- arrhythmia (arrhythmia in rats): prevents
- in vitro activation of Rap1 by EPAC1^α-CNB-GEF (EPAC1^α-CNB-GEF [4]): inhibits
- Binding (%) of EPAC1^FL to PM liposomes, DMSO set to 100% (EPAC1^FL [5]; Fig. 4f left, without cAMP, CE3F4 50 μM): 81%

Compound: Nc1ncnc2c1ncn2[C@@H]1O[C@@H]2COP(=O)(O)O[C@H]2[C@H]1O [cAMP, cyclic adenosine monophosphate]
- effect of cAMP on binding of CNB domain-containing EPAC1 constructs to PM liposomes [6]: does not increase
- Dmax (largest protein dimension) (EPAC1^α-CNB-GEF [2]): 130 Å
- Rg, Guinier analysis (EPAC1^α-CNB-GEF [2]; single ligand): 34.91 Å
- Rg, P(r) analysis (EPAC1^α-CNB-GEF [2]; single ligand): 35.53 Å
- formation of the Rap1-EPAC1^α-CNB-GEF complex [7]: readily observed
- effect of cAMP on intrinsic GEF activity of EPAC1^CNB-GEF (EPAC1^CNB-GEF): increased
- increase in affinity, PM liposomes vs solution (EPAC1^FL [8]): 278 fold
- effect of addition of cAMP on EPAC1^FL binding to PS-PIP2 liposomes with cholesterol (EPAC1^FL [5]; flotation assay, 1 mM cAMP): no discernible effect

Compound: CO[C@@H]1[C@@H]2OP(=O)(O)OC[C@H]2O[C@H]1n1c(Sc2ccc(Cl)cc2)nc2c(N)ncnc21 [compound 007, 8-(4-chlorophenylthio)−2’-O-methyl-cAMP]
- maximal activity (kmax) compared to cAMP (EPAC1; in solution, in vitro): threefold; also recorded: three times higher
- increase of kmax, PM liposomes vs solution (EPAC1^FL [8]): 12.3 fold and 12 fold
- Kd (EPAC1^FL [8]; in solution, Supplementary Table 5 mean): 1.57 µM
- increase in affinity, PM liposomes vs solution (EPAC1^FL [8]): 107 fold
